Measurements taken from patent US12202839B2, “In-flow photooxygenation of aminothienopyridinones generates PTP4A3 phosphatase inhibitors” (University of Virginia Patent Foundation, priority 2018, dated 2025).
“Also recorded” adds a separate entry of the source.

How the values were obtained:
MDA-MB-231 = experiment: Loss of spheroid viability after 48-hour exposure, preexisting spheroids, CellTiterGlo 3D; type: cell-based; details: Homo sapiens, MDA-MB-231 spheroids, N=3, read-out: Cellular IC50 values for loss of spheroid viability after 48-hour exposure (μM ± S.E.M.)
OVCAR4 [1] = experiment: as above; type: cell-based; details: Homo sapiens, OVCAR-4, 48 h, N=3, read-out: Cellular IC50 values for loss of spheroid viability after 48-hour exposure (μM ± S.E.M.)
Kuramochi [2] = experiment: as above; type: cell-based; details: Homo sapiens, N=3, read-out: Cellular IC50 values for loss of spheroid viability after 48-hour exposure (μM ± S.E.M.)
Hs578T [3] = experiment: as above; type: cell-based; details: Homo sapiens, Hs-578T, N=3, read-out: Cellular IC50 values for loss of spheroid viability after 48-hour exposure (μM ± S.E.M.)
[4] = target: Recombinant human PTP4A3 phosphatase (Homo sapiens (Human), UniProt O75365); experiment: In vitro inhibition of PTP4A3 phosphatase activity (automated enzymatic assay); type: biochemical; details: mean of N independent assays, 10-point concentration curves, six replicates; read-out: IC50 (nM) ± SEM
Sequence of Recombinant human PTP4A3 phosphatase (O75365 whole entry): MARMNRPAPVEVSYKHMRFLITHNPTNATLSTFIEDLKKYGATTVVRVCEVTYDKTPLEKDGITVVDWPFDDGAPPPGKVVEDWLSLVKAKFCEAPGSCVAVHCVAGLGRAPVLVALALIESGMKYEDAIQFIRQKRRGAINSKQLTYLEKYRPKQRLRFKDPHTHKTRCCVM

[5] = target: recombinant human His6-tagged PTP4A1 (Homo sapiens (Human), UniProt Q93096); experiment: In vitro biochemical analysis of PTP4A inhibition, DiFMUP substrate; details: for IC50: DiFMUP 12 μM, 25° C., 25 minutes, read-out: IC50 values for Compounds Inhibiting Activity of PTP4A Family Members (mean (nM) ± S.E.M.), PTP4A1
Sequence of recombinant human His6-tagged PTP4A1 (Q93096 whole entry): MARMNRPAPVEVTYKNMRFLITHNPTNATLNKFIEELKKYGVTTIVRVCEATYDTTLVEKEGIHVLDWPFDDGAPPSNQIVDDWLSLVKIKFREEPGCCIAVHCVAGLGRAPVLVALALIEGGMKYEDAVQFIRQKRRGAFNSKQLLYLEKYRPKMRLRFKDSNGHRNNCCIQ

[6] = target: recombinant human His6-tagged PTP4A3 (Homo sapiens (Human), UniProt O75365); experiment: as above; details: for IC50: DiFMUP 12 μM, 25° C., 25 minutes, read-out: IC50 values for Compounds Inhibiting Activity of PTP4A Family Members (mean (nM) ± S.E.M.), PTP4A3; for preference among the PTP4A family members (PTP4A3 versus PTP4A1, PTP4A2), in words: comparison of the IC50 values of Table 4
Sequence of recombinant human His6-tagged PTP4A3 (O75365 whole entry): as the sequence (O75365 whole entry) above

[7] = target: recombinant human His6-tagged PTP4A2 (Homo sapiens (Human), UniProt Q12974); experiment: as above; details: for IC50: DiFMUP 12 μM, 25° C., 25 minutes, read-out: IC50 values for Compounds Inhibiting Activity of PTP4A Family Members (mean (nM) ± S.E.M.), PTP4A2
Sequence of recombinant human His6-tagged PTP4A2 (Q12974 whole entry): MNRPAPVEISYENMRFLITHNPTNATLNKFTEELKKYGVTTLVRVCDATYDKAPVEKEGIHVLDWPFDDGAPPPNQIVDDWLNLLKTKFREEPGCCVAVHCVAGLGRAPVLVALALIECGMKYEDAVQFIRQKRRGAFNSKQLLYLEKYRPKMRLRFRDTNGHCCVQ

[8] = tested on: U937 (human Histiocytic lymphoma); experiment: Leukemia/lymphoma cell viability, Alamar blue; type: cell-based; details: U-937, 48 h, read-out: EC50 (mean μM ± SEM)
RS4;11 (human BALL) = experiment: Leukemia/lymphoma cell viability, Alamar blue; type: cell-based; details: RS4-11, 48 h, read-out: EC50 (mean μM ± SEM)
Kuramochi [9] = experiment: Spheroid growth viability, CellTiterGlo 3D; type: cell-based; details: 48 h, read-out: EC50 (mean μM ± SEM)
COV362 [10] = experiment: Monolayer cancer cell viability, Alamar blue; type: cell-based; details: 48-hour exposure, read-out: EC50 (mean μM ± SEM)
COV362-47R [11] = experiment: Monolayer cancer cell viability, Alamar blue; type: cell-based; details: COV362-47R monolayer, 48-hour exposure, read-out: EC50 (mean μM ± SEM)
OVCAR4 [12] = experiment: Spheroid growth viability, CellTiterGlo 3D; type: cell-based; details: Homo sapiens, OVCAR-4, 48 h, read-out: EC50 (mean μM ± SEM)
V581 [13] = experiment: Spheroid growth viability, CellTiterGlo 3D; type: cell-based; details: 48 h, read-out: EC50 (mean μM ± SEM)
K562 (human CML) = experiment: Leukemia/lymphoma cell viability, Alamar blue; type: cell-based; details: K562, 48 h, read-out: EC50 (mean μM ± SEM)
V581 [14] = experiment: Monolayer cancer cell viability, Alamar blue; type: cell-based; details: 48 h, read-out: EC50 (mean μM ± SEM)
HL60 (human APML) = experiment: Leukemia/lymphoma cell viability, Alamar blue; type: cell-based; details: HL-60, 48 h, read-out: EC50 (mean μM ± SEM)
OVSAHO [15] = experiment: Spheroid growth viability, CellTiterGlo 3D; type: cell-based; details: Homo sapiens, 48 h, read-out: EC50 (mean μM ± SEM)
Hs578T [16] = experiment: Monolayer cancer cell viability, Alamar blue; type: cell-based; details: Homo sapiens, Hs-578T, 48 h, read-out: EC50 (mean μM ± SEM)
COV362 [17] = experiment: Spheroid growth viability, CellTiterGlo 3D; type: cell-based; details: 48 hour exposure, read-out: EC50 (mean μM ± SEM)
COV362-47R [18] = experiment: Spheroid growth viability, CellTiterGlo 3D; type: cell-based; details: COV362-47R spheroid, 48 hour exposure, read-out: EC50 (mean μM ± SEM)
[19] = tested on: HL60-VCR (drug resistant human APML); experiment: Leukemia/lymphoma cell viability, Alamar blue; type: cell-based; details: HL60/VCR, 48 h, read-out: EC50 (mean μM ± SEM)
Kasumi (human AML) = experiment: Leukemia/lymphoma cell viability, Alamar blue; type: cell-based; details: 48 h, read-out: EC50 (mean μM ± SEM)
OVSAHO [20] = experiment: Monolayer cancer cell viability, Alamar blue; type: cell-based; details: Homo sapiens, OVSAHO, 48 h, read-out: EC50 (mean μM ± SEM)
MV-4-11 (human AML/ALL) = experiment: Leukemia/lymphoma cell viability, Alamar blue; type: cell-based; details: MV4-11, 48 h, read-out: EC50 (mean μM ± SEM)
C1498 (mouse AML) = experiment: Leukemia/lymphoma cell viability, Alamar blue; type: cell-based; details: C1498, 48 h, read-out: EC50 (mean μM ± SEM)
MOLT4 (human TALL) = experiment: Leukemia/lymphoma cell viability, Alamar blue; type: cell-based; details: MOLT-4, 48 h, read-out: EC50 (mean μM ± SEM)
OVCAR4 [21] = experiment: Monolayer cancer cell viability, Alamar blue; type: cell-based; details: Homo sapiens, OVCAR-4, 48 h, read-out: EC50 (mean μM ± SEM)

N=C1C(=O)NC(=O)c2cc(-c3ccccc3)sc21 [Compound 2, 7-Imino-2-phenylthieno[3,2-c]pyridine-4,6(5H,7H)-dione, reference compound]
IC50 (MDA-MB-231): 32.7 ± 7.02 µM
IC50 (OVCAR4 [1]): 4.42 µM
IC50 (Kuramochi [2]): 13.2 ± 0.65 µM
IC50 (Hs578T [3]): 8.48 ± 2.38 µM

N=C1C(=O)NC(=O)c2cc(-c3ccc(Cl)cc3)sc21 [Compound 9b, 2-(4-Chlorophenyl)-7-iminothieno[3,2-c]pyridine-4,6(5H,7H)-dione]
IC50 [4]: 41.9 ± 1.15 nM

N=C1C(=O)NC(=O)c2cc(-c3ccc(F)cc3)sc21 [Compound 9d, 2-(4-Fluorophenyl)-7-iminothieno[3,2-c]pyridine-4,6(5H,7H)-dione]
IC50 [4]: 71 ± 2.54 nM

CC(C)(C)C(=O)Oc1ccc(-c2cc3c(s2)C(=N)C(=O)NC3=O)cc1 [Compound 9e, 4-(7-Imino-4,6-dioxo-4,5,6,7-tetrahydrothieno[3,2-c]pyridin-2-yl)phenyl pivalate]
IC50 [4]: 256 ± 12.3 nM

N=C1C(=O)NC(=O)c2cc(-c3cccc(C(F)(F)F)c3)sc21 [Compound 9g, 7-Imino-2-(3-(trifluoromethyl)phenyl)thieno[3,2-c]pyridine-4,6(5H,7H)-dione]
IC50 [4]: 193 ± 6.06 nM

N=C1C(=O)NC(=O)c2cc(-c3cccc(Cl)c3)sc21 [Compound 9h, 2-(3-Chlorophenyl)-7-iminothieno[3,2-c]pyridine-4,6(5H,7H)-dione]
IC50 [4]: 65.7 ± 4.13 nM

Cc1cccc(-c2cc3c(s2)C(=N)C(=O)NC3=O)c1 [Compound 9i, 7-Imino-2-(m-tolyl)thieno[3,2-c]pyridine-4,6(5H,7H)-dione]
IC50 [4]: 53.4 ± 1.46 nM

COc1cccc(-c2cc3c(s2)C(=N)C(=O)NC3=O)c1 [Compound 9j, 2-(3-Methoxyphenyl)-7-iminothieno[3,2-c]pyridine-4,6(5H,7H)-dione]
IC50 [4]: 47.6 ± 2.68 nM

N=C1C(=O)NC(=O)c2cc(-c3ccccc3Cl)sc21 [Compound 9k, 2-(2-Chlorophenyl)-7-iminothieno[3,2-c]pyridine-4,6(5H,7H)-dione]
IC50 [5]: 49 ± 5 nM
IC50 [6]: 36.1 nM
preference among the PTP4A family members (PTP4A3 versus PTP4A1, PTP4A2), in words [6]: more pronounced preference for PTP4A3
IC50 [4]: 36.1 ± 1.43 nM
IC50 (MDA-MB-231): > 50 µM
IC50 (OVCAR4 [1]): 12.3 ± 2.26 µM
IC50 (Kuramochi [2]): > 50 µM
IC50 (Hs578T [3]): 14.4 ± 4.91 µM

N=C1C(=O)NC(=O)c2cc(-c3ccccc3F)sc21 [Compound 9l, 2-(2-Fluorophenyl)-7-iminothieno[3,2-c]pyridine-4,6(5H,7H)-dione]
IC50 [4]: 53.4 ± 1.46 nM

N=C1C(=O)NC(=O)c2cc(-c3ccc(F)c(Cl)c3)sc21 [Compound 9n, 2-(3-Chloro-4-fluorophenyl)-7-iminothieno[3,2-c]pyridine-4,6(5H,7H)-dione]
IC50 [4]: 67.7 ± 3 nM

N=C1C(=O)NC(=O)c2cc(-c3ccc(OCCN4CCOCC4)cc3)sc21 [Compound 9o, 7-Imino-2-(4-(2-morpholinoethoxy)phenyl)thieno[3,2-c]pyridine-4,6(5H, 7H)-dione]
IC50 [5]: 43.2 ± 8.5 nM
IC50 [6]: 98.2 nM
preference among the PTP4A family members (PTP4A3 versus PTP4A1, PTP4A2), in words [6]: little preference
IC50 [7]: 73.9 ± 10 nM
IC50 [4]: 98.2 ± 2.49 nM
IC50 (MDA-MB-231): > 50 µM
IC50 (OVCAR4 [1]): 19.6 ± 4.66 µM
IC50 (Kuramochi [2]): > 50 µM
IC50 (Hs578T [3]): 12 ± 3.84 µM

CN1C(=O)C(=N)c2sc(-c3ccccc3)cc2C1=O [Compound 9p, 7-Imino-5-methyl-2-phenylthieno[3,2-c]pyridine-4,6(5H,7H)-dione]
IC50 [5]: 133 ± 31.7 nM
IC50 [6]: 86 nM
preference among the PTP4A family members (PTP4A3 versus PTP4A1, PTP4A2), in words [6]: more pronounced preference for PTP4A3
IC50 [4]: 48.9 ± 12 nM
IC50 (MDA-MB-231): 61.5 ± 9.66 µM
IC50 (OVCAR4 [1]): 11.5 ± 2.38 µM
IC50 (Kuramochi [2]): 34.1 ± 8.6 µM
IC50 (Hs578T [3]): 10.1 ± 1.93 µM

N=C1C(=O)N(CC2CC2)C(=O)c2cc(-c3ccccc3)sc21 [Compound 9q, 5-(Cyclopropylmethyl)-7-imino-2-phenylthieno[3,2-c]pyridine-4,6(5H,7H)-dione]
IC50 [4]: 85.7 ± 5.96 nM

N=C1C(=O)NC(=O)c2cc(-c3ccc(OCCCCNC(=O)CC45CC6CC(CC(C6)C4)C5)cc3)sc21 [EJR-876-35]
EC50 [8]: 6.87 ± 0.4 µM
EC50 (RS4;11 (human BALL)): 2.2 ± 0.4 µM
EC50 (Kuramochi [9]): > 50 µM
EC50 (COV362 [10]): 25.7 ± 5.3 µM
EC50 (COV362-47R [11]): 25.2 ± 6.2 µM
EC50 (OVCAR4 [12]): 16.7 ± 1.9 µM
EC50 (V581 [13]): 44.4 µM
EC50 (K562 (human CML)): 25.6 ± 2.8 µM
EC50 (V581 [14]): > 50 µM
EC50 (HL60 (human APML)): 1.6 ± 0.2 µM
EC50 (OVSAHO [15]): 21.1 ± 2.8 µM
EC50 (Hs578T [16]): 6.2 µM
EC50 (COV362 [17]): 16 ± 3.7 µM
EC50 (COV362-47R [18]): > 50 µM
EC50 [19]: 17.7 ± 3.8 µM
EC50 (Kasumi (human AML)): 4.3 ± 1.3 µM
EC50 (OVSAHO [20]): 18.8 ± 2.2 µM
EC50 (MV-4-11 (human AML/ALL)): 4.5 ± 1.8 µM
EC50 (C1498 (mouse AML)): 1.2 ± 0.2 µM
EC50 (MOLT4 (human TALL)): 1 ± 0.1 µM
EC50 (OVCAR4 [21]): 15.5 ± 4.7 µM

O=c1[nH]c(=O)c2cc(-c3ccccc3)sc2[nH]1 [JMS-038, 6-phenylthieno[2,3-d]pyrimidine-2,4(1H,3H)-dione, reference compound]
IC50 [5]: > 1000 nM
inhibition of PTP4A1 (in words) ([5]; DiFMUP, 25-minute incubation): inactive
IC50 [6]: > 1000 nM
inhibition of PTP4A3 (in words) ([6]; DiFMUP, 25-minute incubation): failed to inhibit; also recorded: inactive
IC50 [7]: > 1000 nM
inhibition of PTP4A2 (in words) ([7]; DiFMUP, 25-minute incubation): inactive
IC50 (MDA-MB-231): > 50 µM
IC50 (OVCAR4 [1]): > 50 µM
IC50 (Kuramochi [2]): > 50 µM
IC50 (Hs578T [3]): > 50 µM

CN1C(=O)C(=O)c2sc(-c3ccccc3)cc2C1=O [NRT-892-04]
IC50 [4]: 32.2 ± 3.52 nM
